Assay results published in patent US20210323950A1, “HERBICIDALLY ACTIVE BICYCLIC BENZOYLPYRAZOLES” (Bayer Aktiengesellschaft, priority 2018, published 2021).

Tests used:
Type in all cases: in vivo
Conditions in all cases: 320 g/ha, scored visually after about 3 weeks vs untreated controls
Viola tricolor (VIOTR) = assay: Pre-emergence herbicidal action against VIOTR
Description: (§1) VIOTR: Viola tricolor 1. Pre-Emergence Herbicidal Action and Crop Plant Compatibility Seeds of monocotyledonous and dicotyledonous weed plants and crop plants are placed in plastic or organic planting pots and covered with soil. The compounds of the invention, formulated in the form of wettable powders (WP) or as emulsion concentrates (EC), are then applied onto the surface of the covering soil as aqueous suspension or emulsion with addition of 0.5% additive at a water application rate of […] (converted). After the treatment, the pots are placed in a greenhouse and kept under good growth conditions for the trial plants. After about 3 weeks, the effect of the preparations is scored visually in comparison with untreated controls as percentages. The tables below show the herbicidal activity of numerous compounds according to the invention against important harmful plants. For example, 100% activity=the plants have died, 0% activity=like control plants.

[1] = system: Abutilon theophrasti (ABUTH); assay: Pre-emergence herbicidal action against ABUTH
Description: as §1, with “ABUTH: Abutilon theophrasti” for “VIOTR: Viola tricolor”

[2] = system: Amaranthus retroflexus (AMARE); assay: Pre-emergence herbicidal action against AMARE
In short: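 Formulated compounds (WP or EC) sprayed onto soil covering sown seeds, with 0.5% additive at […] water (converted). Greenhouse-grown about 3 weeks, then damage scored visually as percent versus untreated controls (100% = dead, 0% = like control).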

Stellaria media (STEME) = assay: Pre-emergence herbicidal action against STEME
In short: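 Weed seeds are sown in pots under soil, and WP or EC formulations are applied pre-emergence to the soil surface as an aqueous suspension or emulsion with 0.5% additive. After about 3 weeks in the greenhouse, effect is scored visually as % versus untreated controls (100% = plants dead, 0% = like control).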

Veronica persica (VERPE) = assay: Pre-emergence herbicidal action against VERPE
Description: as §1, with “VERPE: Veronica persica” for “VIOTR: Viola tricolor”

[3] = system: Cyperus esculentus (CYPES); assay: Pre-emergence herbicidal action against CYPES
Description: as §1, with “CYPES: Cyperus esculentus” for “VIOTR: Viola tricolor”

Setaria viridis (SETVI) = assay: Pre-emergence herbicidal action against SETVI
Description: as §1, with “SETVI: Setaria viridis” for “VIOTR: Viola tricolor”

[4] = system: Echinochloa crus-galli (ECHCG); assay: Pre-emergence herbicidal action against ECHCG
Description: as §1, with “ECHCG: Echinochloa crus-galli” for “VIOTR: Viola tricolor”

## Cn1ncc(C(=O)c2ccc(C(F)(F)F)c3c2OCS3(=O)=O)c1O [Example 1-43]
Viola tricolor (VIOTR)
  Pre-emergence action against VIOTR: 100%
[1]
  Pre-emergence action against ABUTH: 90%
[2]
  Pre-emergence action against AMARE: 100%
Stellaria media (STEME)
  Pre-emergence action against STEME: 90%
Veronica persica (VERPE)
  Pre-emergence action against VERPE: 100%
[3]
  Pre-emergence action against CYPES: 100%
Setaria viridis (SETVI)
  Pre-emergence action against SETVI: 100%
[4]
  Pre-emergence action against ECHCG: 100%
